How the values were obtained:
[1] = in vivo early half-life of the dye; conditions: dye in its small molecule form
[2] = solubility of the dye in the plant nutrient; assay type: physicochemical; conditions: dye in its small molecule form; nutrient may be water

in vivo early half-life [1]: shorter | solubility in the nutrient [2]: somewhat less soluble
Structure (SMILES): CC1(C)C(/C=C/C=C/C=C/C=C2\N(CCCCS(=O)(=O)O)c3ccc4ccccc4c3C2(C)C)=[N+](CCCCS(=O)(=O)[O-])c2ccc3ccccc3c21 [Indocyanine green, indocyanine green]

From patent US10852236B2, “Method of measuring plant nutrient transport using near-infrared imaging” (Curadel, LLC, priority 2017, dated 2020)
